Where two headings read alike, the source gives them in different places.
What was measured:
weeds [1] = test: Post-emergence test (herbicidal action); type: in vivo; details: test plants of 5-15 cm sprayed, rated after three weeks
Method: Post-Emergence Test (Herbicidal Action)
(§1) To produce a suitable preparation of active compound, 1 part by weight of active compound is mixed with the stated amount of solvent, the stated amount of emulsifier is added and the concentrate is diluted with water to the desired concentration.
Test plants of a height of 5-15 cm are sprayed with the preparation of active compound such that the particular amounts of active compound desired are applied per unit area. The concentration of the spray liquor is chosen such that the particular amounts of active compound desired are applied in 1000 l of water/ha.
(§2) After three weeks, the degree of damage to the plants is rated in % damage in comparison to the development of the untreated control.

[2] = logP determination by reversed-phase HPLC (EEC Directive 79/831 Annex V.A8), acidic range; type: physicochemical
Method: The logP values given in the table were determined in accordance with EEC Directive 79/831 Annex V.A8 by HPLC (High Performance Liquid Chromatography) using a reversed-phase column (C 18). Temperature: 43° C.
(a) Mobile phases for the determination in the acidic range: 0.1% phosphoric acid, acetonitrile; linear gradient from 10% acetonitrile to 90% acetonitrile—the corresponding measurement results in Table 1 are marked a).
Calibration was carried out using unbranched alkan-2-ones (having 3 to 16 carbon atoms) with known logP values (determination of the logP values by the retention times using linear interpolation between two successive alkanones).

weeds [3] = test: Pre-emergence test (herbicidal action); type: in vivo; details: soil sprayed 24 hours after sowing, rated after three weeks
Method: Pre-Emergence Test (Herbicidal Action)
as §1
Seeds of the test plants are sown in normal soil. After 24 hours, the soil is sprayed with the preparation of active compound such that the particular amount of active compound desired is applied per unit area. The concentration of active compound in the spray liquor is chosen such that the particular amount of active compound desired is applied in 1000 litres of water per hectare.
as §2

[4] = pH 2, HPLC, C18 reversed-phase column, read-out: logP (pH 2)

Row | Molecule | logP a) (Table 1, Physical data) [2] | other results
1 | 1-(3-chloro-5-trifluoromethylpyridin-2-yl)-4-methoxy-6-cyclopropylpyrazolopyrimidin-4-one [Example 110] | (Ia) logP = 3.97^a) | herbicidal action against weeds (degree of damage) (weeds [1]): strong action against weeds; logP (pH 2) ([2]; pH 2): 3.97
2 | O=c1[nH]cnc2c1cnn2-c1ncc(C(F)(F)F)cc1Cl [Example 1, 1-(3-chloro-5-trifluoromethylpyridin-2-yl)-1,5-dihydropyrazolo[3,4-d]pyrimidin-4-one] | – | melting point: 331 °C; chromatographic logP [2, 4]: 1.54
3 | Cn1cnc2c(cnn2-c2ncc(C(F)(F)F)cc2Cl)c1=O [Example 2, 1-(3-chloro-5-trifluoromethylpyridin-2-yl)-5-methyl-1,5-dihydropyrazolo[3,4-d]pyrimidin-4-one] | – | melting point: 253 °C; chromatographic logP [2, 4]: 1.76
4 | Cc1nc2c(cnn2-c2c(Cl)cc(C(F)(F)F)cc2Cl)c(=O)[nH]1 [Example 3, 1-(2,6-dichloro-4-trifluoromethylphenyl)-6-methyl-1,5-dihydropyrazolo[3,4-d]pyrimidin-4-one] | – | melting point: 300 °C; chromatographic logP [2, 4]: 2.25
5 | Cc1nc2c(cnn2-c2c(Cl)cc(C(F)(F)F)cc2Cl)c(=O)n1C [Example 4, 1-(2,6-dichloro-4-trifluoromethylphenyl)-5,6-dimethyl-1,5-dihydropyrazolo[3,4-d]pyrimidin-4-one] | – | melting point: 195 °C; chromatographic logP [2, 4]: 2.69
6 | Cc1nc2c(cnn2-c2ncc(C(F)(F)F)cc2Cl)c(=O)[nH]1 [Example 7] | (I) logP = 1.64^a) | –
7 | Cc1nc2c(cnn2-c2ncc(C(F)(F)F)cc2Cl)c(=O)n1C [Example 8] | (I) logP = 1.97^a) | herbicidal action against weeds (degree of damage) (weeds [3]): strong action against weeds
8 | O=c1[nH]c(C(Cl)Cl)nc2c1cnn2-c1ncc(C(F)(F)F)cc1Cl [Example 12] | (I) logP = 2.39^a) | –
9 | CCc1nc2c(cnn2-c2ncc(C(F)(F)F)cc2Cl)c(=O)[nH]1 [Example 13] | (I) logP = 2.39^a) | –
10 | CC(C)c1nc2c(cnn2-c2ncc(C(F)(F)F)cc2Cl)c(=O)[nH]1 [Example 17] | (I) logP = 2.36^a) | –
11 | CC(C)c1nc2c(cnn2-c2ncc(C(F)(F)F)cc2Cl)c(=O)n1C [Example 18] | (I) logP = 2.89^a) | herbicidal action against weeds (degree of damage) (weeds [1]): strong action against weeds; herbicidal action against weeds (degree of damage) (weeds [3]): strong action against weeds
12 | CCCc1nc2c(cnn2-c2ncc(C(F)(F)F)cc2Cl)c(=O)[nH]1 [Example 23] | (I) logP = 2.28^a) | –
13 | CCCc1nc2c(cnn2-c2ncc(C(F)(F)F)cc2Cl)c(=O)n1C [Example 24] | (I) logP = 2.81^a) | herbicidal action against weeds (degree of damage) (weeds [1]): strong action against weeds; herbicidal action against weeds (degree of damage) (weeds [3]): strong action against weeds
14 | CC(C)Cc1nc2c(cnn2-c2ncc(C(F)(F)F)cc2Cl)c(=O)[nH]1 [Example 25] | (I) logP = 2.52^a) | –
15 | CC(C)(C)c1nc2c(cnn2-c2ncc(C(F)(F)F)cc2Cl)c(=O)[nH]1 [Example 26] | (I) logP = 2.74^a) | –
16 | COc1nc(C(C)(C)C)nc2c1cnn2-c1ncc(C(F)(F)F)cc1Cl [Example 27] | (Ia) logP = 2.74^a) | herbicidal action against weeds (degree of damage) (weeds [1]): strong action against weeds; herbicidal action against weeds (degree of damage) (weeds [3]): strong action against weeds
17 | O=c1[nH]c(C(F)(F)F)nc2c1cnn2-c1ncc(C(F)(F)F)cc1Cl [Example 37] | (I) logP = 2.42^a) | –
18 | Cn1c(C(F)(F)F)nc2c(cnn2-c2ncc(C(F)(F)F)cc2Cl)c1=O [Example 38] | (I) logP = 3.11^a) | –
19 | COc1nc(C(F)(F)F)nc2c1cnn2-c1ncc(C(F)(F)F)cc1Cl [Example 39] | (Ia) logP = 3.99^a) | herbicidal action against weeds (degree of damage) (weeds [1]): strong action against weeds
20 | CCOC(=O)COc1nc(C(F)(F)F)nc2c1cnn2-c1ncc(C(F)(F)F)cc1Cl [Example 42] | (Ia) logP = 4.05^a) | –
21 | O=c1[nH]c(C(F)(F)Cl)nc2c1cnn2-c1ncc(C(F)(F)F)cc1Cl [Example 43] | (I) logP = 2.53^a) | –
22 | O=c1[nH]c(C(F)(F)C(F)(F)F)nc2c1cnn2-c1ncc(C(F)(F)F)cc1Cl [Example 44] | (I) logP = 2.84^a) | –
23 | CCOC(=O)c1nc2c(cnn2-c2ncc(C(F)(F)F)cc2Cl)c(=O)n1C [Example 46] | (I) logP = 2.74^a) | –
24 | CCn1c(C2CC2)nc2c(cnn2-c2ncc(C(F)(F)F)cc2Cl)c1=O [Example 50] | (I) logP = 2.96^a) | –

Row | Molecule | logP a) (Table 1, Physical data) [2] | other results
25 | CCOc1nc(C2CC2)nc2c1cnn2-c1ncc(C(F)(F)F)cc1Cl [Example 51] | (Ia) logP = 4.42^a) | –
26 | CC(C)Oc1nc(C2CC2)nc2c1cnn2-c1ncc(C(F)(F)F)cc1Cl [Example 52] | (Ia) logP = 4.86^a) | –
27 | C#CCn1c(C2CC2)nc2c(cnn2-c2ncc(C(F)(F)F)cc2Cl)c1=O [Example 56] | (I) logP = 2.95^a) | –
28 | FC(F)Oc1nc(C2CC2)nc2c1cnn2-c1ncc(C(F)(F)F)cc1Cl [Example 57] | (Ia) logP = 4.24^a) | herbicidal action against weeds (degree of damage) (weeds [1]): strong action against weeds; herbicidal action against weeds (degree of damage) (weeds [3]): strong action against weeds
29 | CCOC(=O)COc1nc(C2CC2)nc2c1cnn2-c1ncc(C(F)(F)F)cc1Cl [Example 58] | (Ia) logP = 3.88^a) | –
30 | Cn1c(C2(F)CC2)nc2c(cnn2-c2ncc(C(F)(F)F)cc2Cl)c1=O [Example 59] | (I) logP = 2.82^a) | herbicidal action against weeds (degree of damage) (weeds [1]): strong action against weeds; herbicidal action against weeds (degree of damage) (weeds [3]): strong action against weeds
31 | COc1nc(C2(F)CC2)nc2c1cnn2-c1ncc(C(F)(F)F)cc1Cl [Example 60] | (Ia) logP = 3.73^a) | herbicidal action against weeds (degree of damage) (weeds [1]): strong action against weeds; herbicidal action against weeds (degree of damage) (weeds [3]): strong action against weeds
32 | O=c1[nH]c(C2CCC2)nc2c1cnn2-c1ncc(C(F)(F)F)cc1Cl [Example 63] | (I) logP = 2.46^a) | –
33 | Cn1c(C2CCC2)nc2c(cnn2-c2ncc(C(F)(F)F)cc2Cl)c1=O [Example 64] | (I) logP = 3.03^a) | herbicidal action against weeds (degree of damage) (weeds [1]): strong action against weeds; herbicidal action against weeds (degree of damage) (weeds [3]): strong action against weeds
34 | COc1nc(C(F)(F)F)nc2c1cnn2-c1ncc(Cl)cc1Cl [Example 72] | (Ia) logP = 3.76^a) | –
35 | Cc1nc2c(cnn2-c2ccc(C(F)(F)F)cc2Cl)c(=O)n1C [Example 81] | (I) logP = 2.30^a) | –
36 | CC(C)c1nc2c(cnn2-c2ccc(C(F)(F)F)cc2Cl)c(=O)n1C [Example 84] | (I) logP = 3.52^a) | –
37 | Cc1nc2c(cnn2-c2nn(C)c(OC(F)F)c2Cl)c(=O)[nH]1 [Example 98] | (I) logP = 1.40^a)m.p. = 254 °C | –
38 | Cc1nc2c(cnn2-c2nn(C)c(OC(F)F)c2Cl)c(=O)n1C [Example 99] | (I) logP = 1.68^a)m.p. = 199 °C | –
39 | Cn1nc(-n2ncc3c(=O)[nH]c(C4CC4)nc32)cc1OC(F)F [Example 101] | (I) logP = 1.59^a) | –
40 | Cn1nc(-n2ncc3c(=O)n(C)c(C4CC4)nc32)cc1OC(F)F [Example 102] | (I) logP = 1.90^a) | –
41 | COc1nc(C2CC2)nc2c1cnn2-c1cc(OC(F)F)n(C)n1 [Example 103] | (Ia) logP = 3.02^a) | –
42 | Cn1nc(-n2ncc3c(=O)[nH]c(C4CC4)nc32)c(Cl)c1OC(F)F [Example 106] | (I) logP = 1.85^a)m.p. = 210 °C | –
43 | Cn1nc(-n2ncc3c(=O)n(C)c(C4CC4)nc32)c(Cl)c1OC(F)F [Example 107] | (I) logP = 2.21^a)m.p. = 220 °C | –
44 | Cn1c(C2CC2)nc2c(cnn2-c2ncc(C(F)(F)F)cc2Cl)c1=O [Example 109, 1-(3-chloro-5-trifluoromethylpyridin-2-yl)-5-methyl-6-cyclopropyl-1,5-dihydropyrazolo[3,4-d]pyrimidin-4-one] | – | herbicidal action against weeds (degree of damage) (weeds [1]): strong action against weeds; herbicidal action against weeds (degree of damage) (weeds [3]): strong action against weeds; chromatographic logP [2, 4]: 2.61; chromatographic logP ([2]; reversed-phase HPLC column (C18); acidic range: 0.1% phosphoric acid, acetonitrile gradient; C18; 43° C.; read-out: logP a) (Table 1, Physical data)): 2.61
45 | NC(=O)c1cnn(-c2ncc(Cl)cc2Cl)c1N [II-2] | – | logP a) (Table 2, Physical data) [2]: logP = 1.02^a)
46 | CC(C)(C)C(=O)Nc1c(C(N)=O)cnn1-c1ncc(C(F)(F)F)cc1Cl [VI-2] | – | logP a) (Table 3, Physical data) [2]: logP = 2.20^a)
47 | CC(C)(CCl)C(=O)Nc1c(C(N)=O)cnn1-c1ncc(C(F)(F)F)cc1Cl [VI-3] | – | logP a) (Table 3, Physical data) [2]: logP = 2.26^a)

Reference: US20050209251A1, “Substituted pyrazolo-pyrimidine-4-ones” (priority 2002, published 2005)
